According to the supplement of paper PMC11451515:

System: P12-Ichikawa
Assay: cell viability relative to DMSO control; higher = less cytotoxic
Settings: 48 h
Summary of the method: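 Viability, reported as a per-plate percentage of DMSO wells with cell-free wells as background, came from CellTiter-Glo One luminescence. Reading took place after 48 h at 37°C. Before that, NOMO1 or SEM (500 cells/well) or P12-Ichikawa (1000 cells/well) leukemia cells, adapted for at least four passages in each medium, were seeded in 1536-well plates (5 μl) and pin-dosed with library compounds in DMSO, 47 μM to 0.79 nM over 11 threefold points.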

[1] = HPLM + 10% dialyzed FBS, 0.000781 µM
[2] = HPLM + 10% dialyzed FBS, 0.00234 µM
[3] = HPLM + 10% dialyzed FBS, 0.00702 µM
[4] = HPLM + 10% dialyzed FBS, 0.0211 µM
[5] = HPLM + 10% dialyzed FBS, 0.0632 µM
[6] = HPLM + 10% dialyzed FBS, 0.19 µM
[7] = HPLM + 10% dialyzed FBS, 0.569 µM
[8] = HPLM + 10% dialyzed FBS, 1.71 µM
[9] = HPLM + 10% dialyzed FBS, 5.12 µM
[10] = HPLM + 10% dialyzed FBS, 15.4 µM
[11] = HPLM + 10% dialyzed FBS, 46.1 µM
[12] = RPMI 5 mM glucose + 10% FBS, 0.000781 µM
[13] = RPMI 5 mM glucose + 10% FBS, 0.00234 µM
[14] = RPMI 5 mM glucose + 10% FBS, 0.00702 µM
[15] = RPMI 5 mM glucose + 10% FBS, 0.0211 µM
[16] = RPMI 5 mM glucose + 10% FBS, 0.0632 µM
[17] = RPMI 5 mM glucose + 10% FBS, 0.19 µM
[18] = RPMI 5 mM glucose + 10% FBS, 0.569 µM
[19] = RPMI 5 mM glucose + 10% FBS, 1.71 µM
[20] = RPMI 5 mM glucose + 10% FBS, 5.12 µM
[21] = RPMI 5 mM glucose + 10% FBS, 15.4 µM
[22] = RPMI 5 mM glucose + 10% FBS, 46.1 µM
[23] = RPMI 5 mM glucose + 10% dialyzed FBS, 0.000781 µM
[24] = RPMI 5 mM glucose + 10% dialyzed FBS, 0.00234 µM
[25] = RPMI 5 mM glucose + 10% dialyzed FBS, 0.00702 µM
[26] = RPMI 5 mM glucose + 10% dialyzed FBS, 0.0211 µM
[27] = RPMI 5 mM glucose + 10% dialyzed FBS, 0.0632 µM
[28] = RPMI 5 mM glucose + 10% dialyzed FBS, 0.19 µM
[29] = RPMI 5 mM glucose + 10% dialyzed FBS, 0.569 µM
[30] = RPMI 5 mM glucose + 10% dialyzed FBS, 1.71 µM
[31] = RPMI 5 mM glucose + 10% dialyzed FBS, 5.12 µM
[32] = RPMI 5 mM glucose + 10% dialyzed FBS, 15.4 µM
[33] = RPMI 5 mM glucose + 10% dialyzed FBS, 46.1 µM

SMILES | cell viability [1] [%] | cell viability [2] [%] | cell viability [3] [%] | cell viability [4] [%] | cell viability [5] [%] | cell viability [6] [%] | cell viability [7] [%] | cell viability [8] [%] | cell viability [9] [%] | cell viability [10] [%] | cell viability [11] [%] | cell viability [12] [%] | cell viability [13] [%] | cell viability [14] [%] | cell viability [15] [%] | cell viability [16] [%] | cell viability [17] [%] | cell viability [18] [%] | cell viability [19] [%] | cell viability [20] [%] | cell viability [21] [%] | cell viability [22] [%] | cell viability [23] [%] | cell viability [24] [%] | cell viability [25] [%] | cell viability [26] [%] | cell viability [27] [%] | cell viability [28] [%] | cell viability [29] [%] | cell viability [30] [%] | cell viability [31] [%] | cell viability [32] [%] | cell viability [33] [%]
N#C[C@H](O[C@@H]1O[C@H](CO[C@@H]2O[C@H](CO)[C@@H](O)[C@H](O)[C@H]2O)[C@@H](O)[C@H](O)[C@H]1O)c1ccccc1 | 110 | 106 | 108 | 102 | 103 | 96.6 | 99.5 | 97.7 | 90.8 | 91.7 | 55.4 | 99.5 | 98.5 | 92.5 | 97.5 | 104 | 99.5 | 94.2 | 88.4 | 89.9 | 94.5 | 48.5 | 98.6 | 96.2 | 95.6 | 101 | 97.6 | 86.1 | 90.6 | 89 | 82.9 | 87.3 | 31.8
N=C1N[C@H]2[C@H](CS[C@H]2CCCCC(=O)O)N1 | 108 | 116 | 110 | 118 | 124 | 119 | 130 | 114 | 123 | 119 | 113 | 123 | 130 | 121 | 134 | 135 | 131 | 125 | 126 | 135 | 126 | 139 | 114 | 124 | 111 | 129 | 117 | 126 | 121 | 117 | 126 | 126 | 116
CCOc1cc(CC(=O)N[C@@H](CC(C)C)c2ccccc2N2CCCCC2)ccc1C(=O)O | 113 | 124 | 116 | 129 | 130 | 125 | 129 | 111 | 12.2 | 13.3 | 13.4 | 110 | 130 | 119 | 137 | 124 | 127 | 135 | 120 | 16.4 | 17.6 | 19.6 |  |  |  |  |  |  |  |  |  |  | 
CCN1CCN(C(=O)Cc2ccc(Nc3ncc(F)c(Nc4ccc(C(=O)Nc5ccccc5Cl)cc4)n3)cc2)CC1 | 107 | 105 | 108 | 108 | 116 | 118 | 116 | 107 | 60.1 | 48.1 | 26.2 | 105 | 108 | 112 | 111 | 115 | 122 | 111 | 114 | 73.2 | 50.9 | 41 | 119 | 111 | 112 | 125 | 131 | 121 | 107 | 107 | 79.2 | 52.6 | 45.6
COc1cc(C(=O)NS(=O)(=O)c2ccccc2C)ccc1Cc1cn(C)c2ccc(NC(=O)OC3CCCC3)cc12 | 73.2 | 81.6 | 85.9 | 90.7 | 89.8 | 86.6 | 86.5 | 89.1 | 88.8 | 104 | 72.3 | 82.7 | 78.3 | 79.2 | 88.1 | 77.8 | 83.6 | 84.4 | 85 | 90.1 | 87 | 5.73 | 76.9 | 74 | 76.6 | 81.6 | 83.8 | 78.3 | 89.6 | 82.3 | 92.5 | 87.4 | 44.2
CNC(=O)Nc1ccc(-c2nc(N3CC4CCC(C3)O4)c3cnn(C4CCC5(CC4)OCCO5)c3n2)cc1 | 107 | 106 | 95.7 | 92.5 | 95.4 | 82.7 | 86.1 | 76.7 | 74.2 | 74.9 | 72.5 | 96.9 | 84.1 | 75.8 | 75.5 | 69.8 | 65.8 | 64.2 | 60.8 | 57.1 | 49.6 | 53 | 106 | 98 | 91.1 | 82.1 | 81.8 | 70.5 | 67.4 | 65.2 | 56.8 | 44.8 | 50.9
COc1cc(O)c2c(c1)C(=O)c1cc(C)cc(O)c1C2=O | 124 | 120 | 122 | 118 | 122 | 119 | 112 | 114 | 110 | 98.9 | 41.7 | 121 | 118 | 121 | 119 | 121 | 116 | 113 | 113 | 120 | 97.6 | 45.2 |  |  |  |  |  |  |  |  |  |  | 
